In one data set the target is T1, human H3 receptor (Homo sapiens, UniProt Q9Y5N1).
T1 construct: expressed in transfected cells
Briefly: Human H3 radioligand binding ([3H]-N-alpha-methylhistamine, CHO cell membranes). Particulars: membranes of CHO cells stably expressing the human H3 receptor; [3H]-N-alpha-methylhistamine approx. 1 nM. The protocol:
Methods: CHO cells stably expressing the human H3 receptor (GenBank: NM_007232) were harvested and cell pellets were frozen (—80° C.). Cell pellets were resuspended in 5 mM Tris-HCl, pH 7.5 with […] and a cocktail of protease inhibitors (Complete Protease Inhibitior Tablets, Roche Diagnostics). Cells were disrupted using a polytron cell homogenizer and the suspension was centrifuged at 1000×g for 10 minutes at 4° C. The pellet was discarded and the supernatant centrifuged at 40,000×g for 30 min at 4° C. This membrane pellet was washed in membrane buffer containing 50 mM Tris-HCl, pH 7.5 with 0.6 mM EDTA, 5 mM MgCl2 and protease inhibitors, recentrifuged as above and the final pellet resuspended in membrane buffer plus 250 mM sucrose and frozen at −80° C.
Radioligand Binding. Membranes were resuspended in 50 mM Tris HCl (pH 7.4), 5 mM MgCl2, 0.1% BSA. The membrane suspensions (10 μg protein per well) were incubated in a 96 well microtiter plate with [^3H]-N-alpha-methylhistamine (approximately 1 nM final concentration), test compounds at various concentrations (0.01 nM-30 μM) and scintillation proximity beads (Perkin Elmer, FlashBlueGPCR Scintillating Beads) in a final volume of 80 μl for 4 hours at room temperature, protected from light. Non-specific binding was determined in the presence of 10 μM clobenpropit. Radioligand bound to receptor, and therefore in proximity to the scintillation beads, was measured using a MicroBeta scintillation counter.

The structures appear in SMILES notation. pKi: −log10 of the molar value. Structures can show the parent of a compound that is named as a salt.

The term pKi denotes the Ki on a negative log10 scale, so that one unit is a factor of ten. High values mean a low Ki, low ones a high Ki. As usually defined, the melting point is the temperature of the solid-liquid transition.

T1 sequence (Q9Y5N1 whole entry): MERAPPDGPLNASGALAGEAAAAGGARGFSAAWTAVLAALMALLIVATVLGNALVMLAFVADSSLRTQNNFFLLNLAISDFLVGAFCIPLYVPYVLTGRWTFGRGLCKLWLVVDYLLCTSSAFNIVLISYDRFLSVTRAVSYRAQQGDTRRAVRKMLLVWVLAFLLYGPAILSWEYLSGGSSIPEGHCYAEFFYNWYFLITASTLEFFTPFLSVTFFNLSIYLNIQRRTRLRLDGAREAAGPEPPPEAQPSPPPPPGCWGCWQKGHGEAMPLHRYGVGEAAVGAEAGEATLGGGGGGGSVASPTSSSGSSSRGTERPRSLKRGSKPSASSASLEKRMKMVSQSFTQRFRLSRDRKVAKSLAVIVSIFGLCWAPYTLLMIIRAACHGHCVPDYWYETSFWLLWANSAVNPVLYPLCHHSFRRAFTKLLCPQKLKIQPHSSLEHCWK

For the compound `Cc1ccc(-c2ccc(OCCCN3CCC[C@H]3C)cc2)nn1` [Example 3, 3-Methyl-6-{4-[3-((R)-2-methyl-pyrrolidin-1-yl)-propoxy]-phenyl}pyridazine], the pKi on human H3 receptor was over 7.30.
In turn, `C[C@@H]1CCCN1CCCOc1ccc(-c2ccc(-c3ccccc3)nn2)cc1` [Example 4, 3-{4-[3-((R)-2-Methyl-pyrrolidin-1-yl)-propoxy]-phenyl}-6-phenylpyridazine] had a melting point of 158 to 160 °C. Besides, the pKi at human H3 receptor is over 7.30.
In the case of `C[C@@H]1CCCN1CCCOc1ccc(-c2ccc(Cl)nn2)cc1` [Example 1, 3-Chloro-6-{4-[3-((R)-2-methyl-pyrrolidin-1-yl)propoxy]-phenyl}pyridazine], the pKi on human H3 receptor is over 7.30.
`Clc1ccc(-c2ccc(OCCCN3CCCCC3)cc2)nn1` [Example 2, 3-Chloro-6-[4-(3-piperidin-1-yl-propoxy)-phenyl]pyridazine] returned a melting point of 140 °C. The same compound showed a negative logarithm of the Ki (pKi) on human H3 receptor of over 7.30.
On to `C[C@@H]1CCCN1CCCOc1ccc(-c2ccc(SCc3ccccc3)nn2)cc1` [Example 33, 3-Benzylsulfanyl-6-{4-[3-((R)-2-methyl-pyrrolidin-1-yl)-propoxy]phenyl}pyridazine], for which the melting point turned out to be 104 °C. Further, at human H3 receptor, the pKi is over 7.30.
As for `C[C@@H]1CCCN1CCCOc1ccc(-c2ccc(N3CCC(O)CC3)nn2)cc1` [Example 9, 1-(6-{4-[3-((R)-2-Methylpyrrolidin-1-yl)-propoxy]phenyl}pyridazin-3-yl)piperidin-4-ol], the melting point was 138 to 141 °C. The compound further had a pKi on human H3 receptor of over 7.30.
The like results for `C[C@@H]1CCCN1CCCOc1ccc(-c2ccc(N)nn2)cc1` [Example 7, 6-{4-[3-((R)-2-Methyl-pyrrolidin-1-yl)-propoxy]-phenyl}pyridazin-3-ylamine] were, in that order, 121 to 122 °C and over 7.30.
`COc1nnc(-c2ccc(OCCCN3CCC[C@H]3C)cc2)c2c1CCC2` [Example 39, 1-Methoxy-4-{4-[3-((R)-2-methylpyrrolidin-1-yl)-propoxy]-phenyl}6,7-dihydro-5H-cyclopenta[d]pyridazine] showed a melting point of 109 °C. In addition, the pKi at human H3 receptor is over 7.30.
Take `COc1cc(-c2ccc(Cl)nn2)ccc1OCCCN1CCCCC1` [Example 11, 3-Chloro-6-[3-methoxy-4-(3-piperidin-1-yl-propoxy)phenyl]pyridazine]: the melting point worked out at 120 °C. The pKi at human H3 receptor was under 7.00.
`c1ccc(CSc2ccc(-c3ccc(OCCCN4CCCCC4)cc3)nn2)cc1` [Example 34, 3-Benzylsulfanyl-6-[4-(3-piperidin-1-yl-propoxy)-phenyl]pyridazine] showed a melting point of 144 °C. The same compound gave a pKi on human H3 receptor of over 7.30.
Take `[O-][S+](Cc1ccccc1)c1ccc(-c2ccc(OCCCN3CCCCC3)cc2)nn1` (stereo not drawn) [Example 36, 3-Phenylmethanesulfinyl-6-[4-(3-piperidin-1-yl-propoxy)phenyl]pyridazine]: the melting point was 186 °C. At human H3 receptor, this compound had a pKi of over 7.30.
Turning to `C[C@H](COc1ccc(-c2ccc(Cl)nn2)cc1)CN1CCC[C@H]1C` [Example 43, 3-Chloro-6-{4-[(S)-2-methyl-3-((R)-2-methylpyrrolidin-1-yl)propoxy]-phenyl}pyridazine], the pKi on human H3 receptor is over 7.30.
Same read-out and setting: then `CSc1nnc(-c2ccc(OCCCN3CCC[C@H]3C)cc2)c2c1CCC2` [Example 32, 1-{4-[3-((R)-2-Methyl-pyrrolodin-1-yl)-propoxy]-phenyl}-4-methylsulfanyl-6,7-dihydro-5H-cyclopenta[d]pyridazine], with over 7.30; and `C[C@@H]1CCCN1CCCOc1ccc(-c2ccc(N3CCOCC3)nn2)cc1` [Example 6, 4-(6-{4-[3-((R)-2-Methylpyrrolidin-1-yl)-propoxy]phenyl}pyridazin-3-yl)morpholine], with over 7.30.
Regarding `CC(C)Oc1ccc(-c2ccc(OCCCN3CCC[C@H]3C)cc2)nn1` [Example 24], the melting point was determined as 75 °C. The pKi on human H3 receptor was over 7.30.
`Clc1nnc(-c2ccc(OCCCN3CCCCC3)cc2)c2c1CCC2` [Example 15, 1-Chloro-4-[4-(3-piperidin-1-yl-propoxy)-phenyl]-6,7-dihydro-5H-cyclopenta[d]pyridazine] showed a melting point of 120 °C. Moreover, the pKi on human H3 receptor was over 7.30.
The like results for `COc1ccc(-c2ccc(OCCCN3CCC[C@H]3C)cc2)nn1` [Example 22] were, in that order, 121 °C and over 7.30.
With `O=S(=O)(Cc1ccccc1)c1ccc(-c2ccc(OCCCN3CCCCC3)cc2)nn1` [Example 38, 3-Phenylmethanesulfonyl-6-[4-(3-piperidin-1-yl-propoxy)phenyl]pyridazine], the melting point stood at 134 °C. Further, at human H3 receptor, the pKi is over 7.30.
`C[C@@H]1CCCN1CCCOc1ccc(-c2ccc(NCc3ccccc3)nn2)cc1` [Example 29, Benzyl-(6-{4-[3-((R)-2-methyl-pyrrolidin-1-yl)-propoxy]-phenyl}-pyridazin-3-yl)amine] yielded a melting point of 139.5 to 141 °C. For the same compound, the pKi at human H3 receptor is over 7.30.
Compound `Cc1cc(OCCCN2CCCCC2)ccc1-c1ccc(Cl)nn1` [Example 12, 3-Chloro-6-[2-methyl-4-(3-piperidin-1-yl-propoxy)phenyl]pyridazine] yielded a melting point of 85 °C. Moreover, the pKi at human H3 receptor is over 7.30.
In the case of `C[C@@H]1CCCN1CCCOc1ccc(-c2ccc(N3CCCC3)nn2)cc1` [Example 5, 3-{4-[3-((R)-2-Methyl-pyrrolidin-1-yl)-propoxy]-phenyl}-6-pyrrolidin-1-yl-pyridazine], the melting point lay within 175 to 180 °C. In addition, the pKi on human H3 receptor was over 7.30.
`C[C@@H]1CCCN1CCCOc1ccc(-c2cccnn2)cc1` (as salt: HCl) [Example 45, 3-{4-[3-((R)-2-Methyl-pyrrolidin-1-yl)-propoxy]-phenyl}-pyridazine] showed a melting point of 198 to 201 °C.
Turning to `CSc1ccc(-c2ccc(OCCCN3CCC[C@H]3C)cc2)nn1` [Example 30], the melting point came to 101 °C. The same compound showed a pKi at human H3 receptor of over 7.30.
Consider `c1ccc(COc2ccc(-c3ccc(OCCCN4CCCCC4)cc3)nn2)cc1` [Example 20, 3-Benzyloxy-6-[4-(3-piperidin-1-yl-propoxy)phenyl]pyridazine], for which the pKi at human H3 receptor was over 7.30.
Turning to `COc1cc(-c2ccc(Cl)nn2)ccc1OCCCN1CCC[C@H]1C` [Example 10, 3-Chloro-6-{3-methoxy-4-[3-((R)-2-methyl-pyrrolidin-1-yl)propoxy}phenyl}pyridazine], the melting point was determined as 122 °C. Besides, the pKi on human H3 receptor is under 7.00.
The matching figures for `CNc1ccc(-c2ccc(OCCCN3CCC[C@H]3C)cc2)nn1` [Example 8, Methyl-(6-{4-[3-((R)-2-methyl-pyrrolidin-1-yl)-propoxy]phenyl}pyridazin-3-yl)amine]: 126 to 129 °C and over 7.30.
Consider `CCNc1ccc(-c2ccc(OCCCN3CCC[C@H]3C)cc2)nn1` [Example 28, Ethyl-(6-{4-[3-((R)-2-methyl-pyrrolidin-1-yl)-propoxy]-phenyl}pyridazin-3-yl)amine], for which the pKi at human H3 receptor is over 7.30.
The compound `C[C@@H]1CCCN1CCCOc1ccc(-c2nnc(SCc3ccccc3)c3c2CCC3)cc1` [Example 42, 1-Benzylsulfanyl-4-{4-[3-((R)-2-methyl-pyrrolidin-1-yl)propoxy]-phenyl}-6,7-dihydro-5H-cyclopenta[d]pyridazine] registered a melting point of 122 °C. Also, on human H3 receptor, the pKi is over 7.30.
Compound `C[C@@H]1CCCN1CCCOc1ccc(-c2ccc(OCc3ccc(F)cc3)nn2)cc1` [Example 26, 3-(4-Fluoro-benzyloxy)-6-{4-[3-((R)-2methyl-pyrrolidin-1-yl)-propoxy]phenyl}pyridazine] had a melting point of 118 °C. For the same compound, on human H3 receptor, the pKi was over 7.30.
As for `C[C@@H]1CCCN1CCCOc1ccc(-c2ccc([S+]([O-])Cc3ccccc3)nn2)cc1` (stereo partly drawn) [Example 35, 3-{4-[3-((R)-2-Methylpyrrolidin-1-yl)propoxy]phenyl}-6-phenylmethanesulfinyl-pyridazine], the pKi at human H3 receptor is over 7.30.
With `N#Cc1cc(-c2ccc(Cl)nn2)ccc1OCCCN1CCCCC1` [Example 14, 5-(6-Chloro-pyridazin-3-yl)-2-(3-piperidin-1-yl-propoxy)benzonitrile], the melting point is 140 to 142 °C. The compound also showed a pKi at human H3 receptor of under 7.00.
As to `C[C@@H]1CCCN1CCCOc1ccc(-c2ccc(-c3cccs3)nn2)cc1` [Example 16, 3-{4-[3-((R)-2-Methyl-pyrrolidin-1-yl)-propoxy]phenyl}-6-thiophen-2-yl-pyridazine], the melting point was 108 °C. Further, at human H3 receptor, the pKi is over 7.30.
In turn, `C[C@@H]1CCCN1CCCOc1ccc(-c2cccnn2)cc1` [Example 45, 3-{4-[3-((R)-2-Methyl-pyrrolidin-1-yl)-propoxy]-phenyl}-pyridazine] showed a pKi at human H3 receptor of over 7.30.
On the same count and under the same terms, the value for `C[C@@H]1CCCN1CCCOc1ccc(-c2ccc(S(=O)(=O)Cc3ccccc3)nn2)cc1` [Example 37, 3-{4-[3-((R)-2-Methyl-pyrrolidin-1-yl)-propoxy]phenyl}-6-phenylmethanesulfonyl-pyridazine] was over 7.30.

The values above are taken from patent US8076331B2, “Substituted pyridazine derivatives” (Cephalon, Inc., priority 2008, dated 2011).
